From US6166072A, “Amino acid derivatives” (Allelix Neuroscience, Inc., priority 1999, dated 2000)

Each molecule was assayed against T1, GlyT-1C (Homo sapiens, UniProt P48067) (assay: Glycine uptake by cells transiently transfected with GlyT-1C). Conditions: GlyT-1 and GlyT-2 transfected cells.
T1 construct: [3H]glycine uptake
T1 sequence (P48067 1-706): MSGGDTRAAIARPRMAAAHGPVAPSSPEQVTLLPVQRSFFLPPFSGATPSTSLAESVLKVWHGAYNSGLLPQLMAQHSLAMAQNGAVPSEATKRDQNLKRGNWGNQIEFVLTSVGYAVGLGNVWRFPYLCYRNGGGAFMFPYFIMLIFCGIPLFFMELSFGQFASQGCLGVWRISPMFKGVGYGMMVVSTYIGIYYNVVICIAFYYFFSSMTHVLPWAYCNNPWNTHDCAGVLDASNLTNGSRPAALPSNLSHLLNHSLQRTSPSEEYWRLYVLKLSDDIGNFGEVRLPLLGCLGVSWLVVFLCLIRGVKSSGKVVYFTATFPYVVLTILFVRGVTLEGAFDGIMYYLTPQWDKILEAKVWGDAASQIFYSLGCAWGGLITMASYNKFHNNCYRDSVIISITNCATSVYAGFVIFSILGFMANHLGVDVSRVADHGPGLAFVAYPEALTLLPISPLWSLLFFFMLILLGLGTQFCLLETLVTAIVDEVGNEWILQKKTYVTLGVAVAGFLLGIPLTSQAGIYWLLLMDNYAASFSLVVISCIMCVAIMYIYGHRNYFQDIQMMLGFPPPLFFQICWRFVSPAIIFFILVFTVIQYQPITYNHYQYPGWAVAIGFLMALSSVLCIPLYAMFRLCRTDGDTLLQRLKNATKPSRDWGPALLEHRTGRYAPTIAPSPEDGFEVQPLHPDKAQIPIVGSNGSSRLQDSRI
Format: cell-based
Description: (§1) This example illustrates a method for the measurement of glycine uptake by transfected cultured cells.
(§2) Cells transiently transfected with GlyT-1C (see Kim, et al., Molecular Pharmacology, 45, 1994:608-617) and human GlyT-2 (the homolog of the rat GlyT-2 described by Liu et al., J. Biological Chemistry, 268, 1993.22802-22808) were washed three times with HEPES buffered saline (HBS). The cells were then incubated 10 minutes at 37° C., after which a solution containing 50 nM [^3 H]glycine (17.5 Ci/mmol) and either (a) no potential competitor, (b) […] nonradioactive glycine or (c) a concentration of a candidate drug. A range of concentrations of the candidate drug was used to generate data for calculating the concentration resulting in 50% of the effect (e.g., the IC50 's which are the concentration of drug inhibiting glycine uptake by 50%). The cells were then incubated another 10 minutes at 37° C., after which the cells were aspirated and washed three times with ice-cold HBS. The cells were harvested, scintillant was added to the cells, the cells were shaken for 30 minutes, and the radioactivity in the cells was counted using a scintillation counter. Data were compared between the same cells contacted and not contacted by the candidate agent, and between cells having GlyT-1 activity versus cells having GlyT-2 activity, depending on the assay being conducted.

Compound | mixed GlyT-1/GlyT-2 activity
CCCc1ccc(C(SCC(N)C(=O)O)c2ccc(F)cc2F)cc1 (racemic) [S-(2,4-Difluoro-4'-^npropyldiphenyl)methyl-D,L-cysteine] | mixed GlyT-1/GlyT-2 activity
CCc1ccc(C(SCC(N)C(=O)O)c2cccc(F)c2)cc1CC (racemic) [S-(3,4-Diethyl-3'-fluorodiphenyl)methyl-D,L-cysteine] | mixed GlyT-1/GlyT-2 activity
CCc1ccc(C(SCC(N)C(=O)O)c2cccc(C(F)(F)F)c2)cc1CC (racemic) [S-(3,4-Diethyl-3'-trifluoromethyidiphenyl)methyl-D,L-cysteine] | mixed GlyT-1/GlyT-2 activity
CCc1ccc(C(SC(C)(C)C(N)C(=O)O)c2ccc(F)cc2)cc1CC (racemic) [S-(3,4-Diethyl-4-fluorodiphenyl)methyl-D,L-dimethylcysteine] | mixed GlyT-1/GlyT-2 activity
CC(C)(C)c1ccc(C(SCCC(N)C(=O)O)c2ccccc2)cc1 (racemic) [S-(4'-Butyidiphenyl)methyl-D,L-homocysteine] | mixed GlyT-1/GlyT-2 activity

These molecules were tested against T2, human GlyT-2 (Homo sapiens, UniProt Q9Y345) (assay: Glycine uptake by cells transiently transfected with human GlyT-2). Conditions: GlyT-2 versus GlyT-1 transfected cells.
T2 construct: [3H]glycine uptake
T2 sequence (Q9Y345 1-797): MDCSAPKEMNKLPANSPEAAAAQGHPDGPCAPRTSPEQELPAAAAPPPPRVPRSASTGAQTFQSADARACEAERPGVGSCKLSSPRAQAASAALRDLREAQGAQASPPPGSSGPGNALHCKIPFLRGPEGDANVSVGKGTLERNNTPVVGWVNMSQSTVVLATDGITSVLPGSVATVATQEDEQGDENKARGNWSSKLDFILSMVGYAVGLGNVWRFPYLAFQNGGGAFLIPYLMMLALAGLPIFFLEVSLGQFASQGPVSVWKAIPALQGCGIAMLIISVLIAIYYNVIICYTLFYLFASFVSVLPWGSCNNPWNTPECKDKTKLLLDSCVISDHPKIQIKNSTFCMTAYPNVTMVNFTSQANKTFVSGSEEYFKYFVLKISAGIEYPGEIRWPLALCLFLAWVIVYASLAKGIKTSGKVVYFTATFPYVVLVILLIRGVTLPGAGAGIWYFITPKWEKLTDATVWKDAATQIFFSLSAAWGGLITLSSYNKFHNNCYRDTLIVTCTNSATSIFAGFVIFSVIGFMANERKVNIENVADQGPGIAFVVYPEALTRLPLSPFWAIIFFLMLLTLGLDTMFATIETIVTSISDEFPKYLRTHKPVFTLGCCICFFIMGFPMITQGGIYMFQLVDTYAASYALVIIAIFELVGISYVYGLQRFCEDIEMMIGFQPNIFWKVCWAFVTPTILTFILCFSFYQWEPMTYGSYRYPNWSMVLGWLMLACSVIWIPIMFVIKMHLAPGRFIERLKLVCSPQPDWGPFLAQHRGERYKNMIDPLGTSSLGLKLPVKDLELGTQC
Format: cell-based
Description: as §1, §2

Compound | selectivity for inhibition of glycine transport via GlyT-2 versus GlyT-1
CCc1ccc(C(SCC(N)C(=O)O)c2ccc(F)cc2F)cc1CC (racemic) [S-(3,4-Diethyl-2',4'-difluorodiphenyl)methyl-D,L-cysteine] | selectivity for the inhibition of glycine transport via GlyT-2 versus GlyT-1
CCc1ccc(C(SC(C)(C)C(N)C(=O)O)c2ccccc2F)cc1CC (racemic) [S-(3,4-Diethyl-2'-fluorodiphenyl)methyl-D,L-dimethylcysteine] | selectivity for the inhibition of glycine transport via GlyT-2 versus GlyT-1
CCc1ccc(C(SCC(N)C(=O)O)c2ccc([N+](=O)[O-])cc2)cc1CC (racemic) [S-(3,4-Diethyl-4'-nitrodiphenyl)methyl-D,L-cysteine] | selectivity for the inhibition of glycine transport via GlyT-2 versus GlyT-1
Cc1ccc(C(SCC(N)C(=O)O)c2ccc(C)cc2)cc1 (racemic) [S-(4,4'-Dimethyldiphenyl)methyl-D,L-cysteine] | selectivity for the inhibition of glycine transport via GlyT-2 versus GlyT-1
NC(CSC(c1ccc(F)cc1)c1ccccc1-c1ccccc1)C(=O)O (racemic) [S-(4-Fluoro-2'-phenyldiphenyl)methyl-D,L-cysteine] | selectivity for the inhibition of glycine transport via GlyT-2 versus GlyT-1
Cc1ccc(C(SCC(N)C(=O)O)c2ccc(C)s2)s1 (racemic) [S-[α,α-Bis(5-methyl-2-thienyl)]methyl-D,L-cysteine] | selectivity for the inhibition of glycine transport via GlyT-2 versus GlyT-1
NC(CSC(c1ccc2c(c1)CCCC2)c1ccc(F)cc1F)C(=O)O (racemic) [S-[α-(5,6,7,8-Tetrahydronaphth-2-yl)-α-(2,4-difluorophenyl)]methyl-D,L-cysteine] | selectivity for the inhibition of glycine transport via GlyT-2 versus GlyT-1
